From US20250324971A1, “HERBICIDAL DERIVATIVES” (SYNGENTA CROP PROTECTION AG, priority 2022, published 2025)

Assays:
Assay type in all cases: in vivo
[1] = system: Amaranthus palmeri (AMAPA); assay: Pre-Emergence Test (herbicidal, glasshouse pots); conditions: rate 250 g/ha, evaluated after 13 days, five-point scale
Zea mays (ZEAMX) [2] = assay: Post-Emergence Test (herbicidal, glasshouse pots); conditions: rate 250 g/ha; evaluated after 13 days
Procedure, shortened: (§1)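 Pots sown and sprayed with compound in acetone/water 50:50 with 0.5% Tween 20 at rates in g/ha, grown in glasshouse (24/16 °C, 14 h light, 65% humidity). Damage scored 13 days later on a five-point scale (5 = 81-100%, 1 = 0-20%).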

Setaria faberi (SETFA) [3] = assay: Post-Emergence Test (herbicidal, glasshouse pots); conditions: rate 250 g/ha; evaluated after 13 days
Procedure, shortened: as §1

[4] = system: Echinochloa crus-galli (ECHCG); assay: Post-Emergence Test (herbicidal, glasshouse pots); conditions: rate 250 g/ha; evaluated after 13 days
Procedure, shortened: as §1

[5] = system: Ipomoea hederacea (IPOHE); assay: Post-Emergence Test (herbicidal, glasshouse pots); conditions: rate 250 g/ha; evaluated after 13 days
Procedure, shortened: as §1

[6] = system: Amaranthus retoflexus (AMARE); assay: Post-Emergence Test (herbicidal, glasshouse pots); conditions: rate 250 g/ha; evaluated after 13 days
Procedure, shortened: as §1

[7] = system: Amaranthus palmeri (AMAPA); assay: Post-Emergence Test (herbicidal, glasshouse pots); conditions: rate 250 g/ha; evaluated after 13 days
Procedure, shortened: as §1

[8] = system: Amaranthus retoflexus (AMARE); assay: Pre-Emergence Test (herbicidal, glasshouse pots); conditions: rate 250 g/ha, evaluated after 13 days, five-point scale
[9] = system: Echinochloa crus-galli (ECHCG); assay: Pre-Emergence Test (herbicidal, glasshouse pots); conditions: rate 250 g/ha, evaluated after 13 days, five-point scale
[10] = system: Ipomoea hederacea (IPOHE); assay: Pre-Emergence Test (herbicidal, glasshouse pots); conditions: rate 250 g/ha, evaluated after 13 days, five-point scale
Setaria faberi (SETFA) [11] = assay: Pre-Emergence Test (herbicidal, glasshouse pots); conditions: rate 250 g/ha, evaluated after 13 days, five-point scale
Zea mays (ZEAMX) [12] = assay: Pre-Emergence Test (herbicidal, glasshouse pots); conditions: rate 250 g/ha, evaluated after 13 days, five-point scale

Row | SMILES | percentage damage caused to the plant, AMAPA [1] | Post-Emergence Test ZEAMX percentage damage (five-point scale) (Zea mays (ZEAMX) [2]) | Post-Emergence Test SETFA percentage damage (five-point scale) (Setaria faberi (SETFA) [3]) | Post-Emergence Test ECHCG percentage damage (five-point scale) [4] | Post-Emergence Test IPHOE percentage damage (five-point scale) [5] | Post-Emergence Test AMARE percentage damage (five-point scale) [6] | Post-Emergence Test AMAPA percentage damage (five-point scale) [7] | percentage damage caused to the plant, AMARE [8] | percentage damage caused to the plant, ECHCG [9] | percentage damage caused to the plant, IPHOE [10] | percentage damage caused to the plant, SETFA (Setaria faberi (SETFA) [11]) | percentage damage caused to the plant, ZEAMX (Zea mays (ZEAMX) [12])
1 | CCn1cc(Oc2cc(=O)c(C(=O)O)c(-c3ccc(Cl)c(Cl)c3)n2CC)cn1 [Compound 59, 2-(3,4-dichlorophenyl)-1-ethyl-6-(1-ethylpyrazol-4-yl)oxy-4-oxo-pyridine-3-carboxylic acid] | 1 (1=0-20%) | 4 (4=61-80%) | 3 (3=41-60%) | 3 (3=41-60%) | 4 (4=61-80%) | 4 (4=61-80%) | 3 (3=41-60%) | 2 (2=21-40%) | 4 (4=61-80%) | 4 (4=61-80%) | 5 (5=81-100%) | 3 (3=41-60%)
2 | CCn1c(Oc2cc(Cl)n(C)n2)cc(=O)c(C(=O)O)c1-c1ccc(Cl)c(Cl)c1 [Compound 60, 6-(5-chloro-1-methyl-pyrazol-3-yl)oxy-2-(3,4-dichlorophenyl)-1-ethyl-4-oxo-pyridine-3-carboxylic acid] | 0 | 3 (3=41-60%) | 1 (1=0-20%) | 1 (1=0-20%) | 4 (4=61-80%) | 4 (4=61-80%) | 1 (1=0-20%) | 2 (2=21-40%) | 1 (1=0-20%) | 4 (4=61-80%) | 3 (3=41-60%) | 0
3 | C/C=C(\C)COc1cc(=O)c(C(=O)O)c(-c2ccc(Cl)c(Cl)c2)n1CC [Compound 63, 2-(3,4-dichlorophenyl)-1-ethyl-6-[(E)-2-methylbut-2-enoxy]-4-oxo-pyridine-3-carboxylic acid] | 0 | 1 (1=0-20%) | 0 | 1 (1=0-20%) | 2 (2=21-40%) | 2 (2=21-40%) | 1 (1=0-20%) | 1 (1=0-20%) | 0 | 2 (2=21-40%) | 0 | 0
4 | CCn1c(Oc2ccc(C)c(F)c2)cc(=O)c(C(=O)O)c1-c1ccc(C#N)c(Cl)c1 [Compound 73, 2-(3-chloro-4-cyano-phenyl)-1-ethyl-6-(3-fluoro-4-methyl-phenoxy)-4-oxo-pyridine-3-carboxylic acid] | 1 (1=0-20%) | 4 (4=61-80%) | 3 (3=41-60%) | 4 (4=61-80%) | 4 (4=61-80%) | 1 (1=0-20%) | 1 (1=0-20%) | 1 (1=0-20%) | 4 (4=61-80%) | 4 (4=61-80%) | 5 (5=81-100%) | 2 (2=21-40%)
5 | CCn1c(Oc2ccc(F)c(F)c2)cc(=O)c(C(=O)O)c1-c1ccc(C#N)c(Cl)c1 [Compound 76] | 2 (2=21-40%) | 4 (4=61-80%) | 4 (4=61-80%) | 3 (3=41-60%) | 4 (4=61-80%) | 4 (4=61-80%) | 3 (3=41-60%) | 2 (2=21-40%) | 4 (4=61-80%) | 1 (1=0-20%) | 5 (5=81-100%) | 5 (5=81-100%)
